Test results taken from ChEMBL document CHEMBL4765279, “Discovery of a novel series of imidazo[1',2':1,6]pyrido[2,3-d]pyrimidin derivatives as potent cyclin-dependent kinase 4/6 inhibitors” (Eur J Med Chem, 2020).

Columns and labels:
[1] = target: CDK4/Cyclin D3 (Homo sapiens, UniProt P11802); test: Inhibition of recombinant human full-length N-terminal GST-fused CDK4 (1 to 303 residues)/GST-tagged CyclinD3 (1 to 292 residues) expressed in baculovirus expression system using ULight-elF4E-binding protein 1 peptide as substrate measured after 30 mins by LANCE assay
[2] = target: CDK6/Cyclin D3 (Homo sapiens, UniProt Q00534); test: Inhibition of human full-length N-terminal GST tagged CDK6 (1 to 326 residues)/GST-tagged cyclinD3 (1 to 292 residues) expressed in baculovirus expression system using ULight-elF4E-binding protein 1 peptide as substrate measured after 30 mins by LANCE assay
[3] = test system: COLO 205; test: Antiproliferative activity against human COLO 205 cells assessed as cell growth inhibition measured after 4 to 6 days by celltiter-glo luminescent cell viability assay; assay type: functional, cell-based
[4] = test system: U-87 MG; test: Antiproliferative activity against human U-87 MG cells assessed as cell growth inhibition measured after 4 to 6 days by celltiter-glo luminescent cell viability assay; assay type: functional, cell-based, U-87MG ATCC

Chain of CDK6/Cyclin D3 (Q00534 whole entry, looked up, the tested form may be a part): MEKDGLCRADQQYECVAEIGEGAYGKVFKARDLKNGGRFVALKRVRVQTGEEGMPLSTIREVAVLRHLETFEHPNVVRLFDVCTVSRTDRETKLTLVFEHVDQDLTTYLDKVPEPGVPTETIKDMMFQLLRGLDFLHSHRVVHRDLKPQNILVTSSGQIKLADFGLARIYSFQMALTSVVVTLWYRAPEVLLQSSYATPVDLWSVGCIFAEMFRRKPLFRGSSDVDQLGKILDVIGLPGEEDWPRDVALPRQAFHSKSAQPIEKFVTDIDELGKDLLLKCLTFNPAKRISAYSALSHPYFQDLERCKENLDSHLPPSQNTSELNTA
Chain of CDK4/Cyclin D3 (P11802 whole entry, the tested form may be a part): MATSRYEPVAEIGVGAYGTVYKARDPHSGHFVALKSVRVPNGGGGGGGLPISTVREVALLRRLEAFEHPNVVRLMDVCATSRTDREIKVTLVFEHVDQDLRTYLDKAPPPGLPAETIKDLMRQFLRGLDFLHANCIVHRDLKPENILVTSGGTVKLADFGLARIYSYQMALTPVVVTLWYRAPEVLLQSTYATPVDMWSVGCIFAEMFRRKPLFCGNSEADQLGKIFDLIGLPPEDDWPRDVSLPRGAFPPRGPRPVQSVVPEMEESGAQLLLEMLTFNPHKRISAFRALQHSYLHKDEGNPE
Chain of CDK4/Cyclin D3 (P30281 whole entry, further chain, the tested form may be a part): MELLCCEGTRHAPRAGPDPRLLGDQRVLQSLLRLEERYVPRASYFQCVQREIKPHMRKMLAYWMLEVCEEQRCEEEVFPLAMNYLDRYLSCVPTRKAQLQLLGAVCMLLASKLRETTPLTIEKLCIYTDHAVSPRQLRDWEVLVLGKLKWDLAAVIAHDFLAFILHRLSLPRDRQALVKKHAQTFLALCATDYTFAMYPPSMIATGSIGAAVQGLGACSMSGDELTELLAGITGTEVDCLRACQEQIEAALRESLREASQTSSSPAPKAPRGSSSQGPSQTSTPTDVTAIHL

IC50 [1] [nM] | IC50 [2] [nM] | IC50 [3] [nM] | IC50 [4] [nM] | Structure (SMILES)
123 | 110 |  |  | Cc1cn2c(n1)c(C#N)c(C)c1cnc(Nc3ccc(N4CCOCC4)cc3)nc12
2.7 | 7.1 | 639 | 184 | CNCCN1CCc2nc(Nc3ncc4c(C)c(C(C)=O)c5nc(C(C)C)cn5c4n3)ccc2C1
9.9 | 23.1 | 5740 | 3720 | CC(=O)c1c(C)c2cnc(Nc3ccc4c(n3)CCNC4)nc2n2cc(C(C)C)nc12
4.2 | 5.1 | 324 | 249 | CC(=O)c1c(C)c2cnc(Nc3ccc4c(n3)CCN(CCN(C)C)C4)nc2n2cc(C(C)C)nc12
59 | 150 |  | > 10000 | CC(=O)c1c(C)c2cnc(Nc3ccc(N4CCNCC4)cc3)nc2n2cc(C(=O)N3CCCC3)nc12
> 3330 | 924 |  |  | Cc1cn2c(n1)c(C#N)c(C)c1cnc(Nc3ccc(Br)cc3)nc12
4.5 | 4.3 | 1420 | 536 | CC(=O)c1c(C)c2cnc(Nc3ccc(N4CCC(N(C)C)C4)cn3)nc2n2cc(C(C)C)nc12 (stereo not drawn)
